{"source": "patent US4605744A", "about": "“Imidazole derivatives” (Hoffmann-La Roche Inc., priority 1985, dated 1986)", "key": {"P. aeruginosa 6719": {"tested_on": "P. aeruginosa 6719", "test": "In vivo antibacterial activity (PD50)", "conditions": "Pseudomonas aeruginosa, 6719, sc, challenge 2290 LD50s, 2 treatments, Table 11", "protocol": "(§2) The results in these Tables and the PD50 's were determined by the procedure set forth on page 160 in Beskid et al., Antimicrobial Agents and Chemotherapy, Vol. 20, No. 2 pp. 159-167 (Aug. 1981) for \"in vivo studies\"."}, "E. cloacae 6951 [1]": {"tested_on": "E. cloacae 6951", "test": "In vivo antibacterial activity (PD50)", "conditions": "Enterobacter cloacae, 6951, sc, challenge 3162 LD50s, 2 treatments, Table 11", "protocol": "as §2"}, "S. aureus 1059B": {"tested_on": "S. aureus 1059B", "test": "In vitro antibacterial activity (MIC)", "type": "cell-based", "conditions": "Staphylococcus aureus, read-out: MIC", "in_short": "(§1)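 Broth microdilution in Mueller-Hinton broth, drug range 128 to 0.008 μg/ml. Each well received 1.5 μl of a 10^-2 dilution of an overnight culture; sealed trays were incubated overnight at 37° C. MIC = lowest concentration with no visible growth.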"}, "P. aeruginosa B": {"tested_on": "P. aeruginosa B", "test": "In vitro antibacterial activity (MIC)", "type": "cell-based", "conditions": "Pseudomonas aeruginosa, read-out: MIC", "in_short": "as §1"}, "P. rettgeri ATCC 9250": {"tested_on": "P. rettgeri ATCC 9250", "test": "In vitro antibacterial activity (MIC)", "type": "cell-based", "conditions": "Providencia rettgeri, ATCC9250, P. rettgeri ATCC 9250; read-out: MIC", "in_short": "as §1"}, "S. aureus Smith [2]": {"tested_on": "S. aureus Smith", "test": "In vitro antibacterial activity (MIC)", "type": "cell-based", "conditions": "Staphylococcus aureus, S. aureus Smith; read-out: MIC", "in_short": "as §1"}, "P. aeruginosa 5712": {"tested_on": "P. aeruginosa 5712", "test": "In vitro antibacterial activity (MIC)", "type": "cell-based", "conditions": "Pseudomonas aeruginosa; P. aeruginosa 5712; read-out: MIC", "in_short": "as §1"}, "S. marcescens 5805": {"tested_on": "S. marcescens 5805", "test": "In vitro antibacterial activity (MIC)", "type": "cell-based", "conditions": "Serratia marcescens, 5805", "in_short": "as §1"}, "S. typhi P58A": {"tested_on": "S. typhi P58A", "test": "In vitro antibacterial activity (MIC)", "type": "cell-based", "conditions": "Salmonella enterica, TYPHI", "in_short": "as §1"}, "S. marcescens SM [3]": {"tested_on": "S. marcescens SM", "test": "In vitro antibacterial activity (MIC)", "type": "cell-based", "conditions": "Serratia marcescens, read-out: MIC", "in_short": "as §1"}, "K. pneumoniae 8357": {"tested_on": "K. pneumoniae 8357", "test": "In vitro antibacterial activity (MIC)", "type": "cell-based", "conditions": "Klebsiella pneumoniae, 8357, K. pneumoniae 8357; read-out: MIC", "in_short": "as §1"}, "P. mirabilis 2": {"tested_on": "P. mirabilis 2", "test": "In vitro antibacterial activity (MIC)", "type": "cell-based", "conditions": "Proteus mirabilis, 2, P. mirabilis 2; read-out: MIC", "in_short": "as §1"}, "K. pneumoniae 503-994": {"tested_on": "K. pneumoniae 503-994", "test": "In vitro antibacterial activity (MIC)", "type": "cell-based", "conditions": "Klebsiella pneumoniae, 503994, K. pneumoniae 503-994; read-out: MIC", "in_short": "as §1"}, "P. aeruginosa Stone 130": {"tested_on": "P. aeruginosa Stone 130", "test": "In vitro antibacterial activity (MIC)", "type": "cell-based", "conditions": "Pseudomonas aeruginosa, STONE130, read-out: MIC", "in_short": "as §1"}, "P. aeruginosa 503-56 [4]": {"tested_on": "P. aeruginosa 503-56", "test": "In vitro antibacterial activity (MIC)", "type": "cell-based", "conditions": "Pseudomonas aeruginosa, 50356, P. aeruginosa 503-56", "in_short": "as §1"}, "P. aeruginosa POW 151": {"tested_on": "P. aeruginosa POW 151", "test": "In vitro antibacterial activity (MIC)", "type": "cell-based", "conditions": "Pseudomonas aeruginosa, POW151", "in_short": "as §1"}, "E. aerogenes 8 [5]": {"tested_on": "E. aerogenes 8", "test": "In vitro antibacterial activity (MIC)", "type": "cell-based", "conditions": "Klebsiella aerogenes; E. aerogenes 8; read-out: MIC", "in_short": "as §1"}, "K. pneumoniae A": {"tested_on": "K. pneumoniae A", "test": "In vitro antibacterial activity (MIC)", "type": "cell-based", "conditions": "Klebsiella pneumoniae, K. pneumoniae A; read-out: MIC", "in_short": "as §1"}, "E. cloacae 24": {"tested_on": "E. cloacae 24", "test": "In vitro antibacterial activity (MIC)", "type": "cell-based", "conditions": "Enterobacter cloacae, 24, E. cloacae 24; read-out: MIC", "in_short": "as §1"}, "K. pneumoniae HE7": {"tested_on": "K. pneumoniae HE7", "test": "In vitro antibacterial activity (MIC)", "type": "cell-based", "conditions": "Klebsiella pneumoniae; K. pneumoniae HE7; read-out: MIC", "in_short": "as §1"}, "P. mirabilis 503-1136": {"tested_on": "P. mirabilis 503-1136", "test": "In vitro antibacterial activity (MIC)", "type": "cell-based", "conditions": "Proteus mirabilis, 5031136, P. mirabilis 503-1136; read-out: MIC", "in_short": "as §1"}, "E. cloacae 6951 [6]": {"tested_on": "E. cloacae 6951", "test": "In vitro antibacterial activity (MIC)", "type": "cell-based", "conditions": "Enterobacter cloacae, 6951, E. cloacae 6951; read-out: MIC", "in_short": "as §1"}, "P. vulgaris ATCC 6380": {"tested_on": "P. vulgaris ATCC 6380", "test": "In vitro antibacterial activity (MIC)", "type": "cell-based", "conditions": "Proteus vulgaris, ATCC6380, P. vulgaris ATCC 6380; read-out: MIC", "in_short": "as §1"}, "S. faecalis C1": {"tested_on": "S. faecalis C1", "test": "In vivo antibacterial activity (PD50)", "conditions": "Enterococcus faecalis, C1; sc; challenge 10 LD50s; 1 treatment; Table 11", "protocol": "as §2"}, "E. coli 5152": {"tested_on": "E. coli 5152", "test": "In vivo antibacterial activity (PD50)", "conditions": "Escherichia coli, 5152, sc, challenge 4780 LD50s, 2 treatments, Table 11"}, "E. aerogenes 8 [7]": {"tested_on": "E. aerogenes 8", "test": "In vivo antibacterial activity (PD50)", "conditions": "Klebsiella aerogenes, 8, sc, read-out: PD50, sc; challenge 10 LD50s; 2 treatments; Table 11", "protocol": "as §2"}, "S. marcescens SM [8]": {"tested_on": "S. marcescens SM", "test": "In vivo antibacterial activity (PD50)", "conditions": "Serratia marcescens; sc; challenge 489 LD50s; 2 treatments; Table 11", "protocol": "as §2"}, "P. aeruginosa 503-56 [9]": {"tested_on": "P. aeruginosa 503-56", "test": "In vivo antibacterial activity (PD50)", "conditions": "Pseudomonas aeruginosa, 50356, sc, challenge 50 LD50s, 2 treatments, Table 11"}, "P. aeruginosa 6148B": {"tested_on": "P. aeruginosa 6148B", "test": "In vivo antibacterial activity (PD50)", "conditions": "Pseudomonas aeruginosa, sc, challenge 32 LD50s, 2 treatments, Table 11", "protocol": "as §2"}, "S. aureus Smith [10]": {"tested_on": "S. aureus Smith", "test": "In vivo antibacterial activity (PD50)", "conditions": "Staphylococcus aureus, sc, challenge 70 LD50s, 2 treatments, Table 11"}, "E. coli 257": {"tested_on": "E. coli 257", "test": "In vitro antibacterial activity (MIC, Mueller-Hinton broth)", "type": "cell-based", "conditions": "Escherichia coli, 257, E. coli 257; read-out: MIC", "in_short": "as §1"}, "P. aeruginosa 6720": {"tested_on": "P. aeruginosa 6720", "test": "In vivo antibacterial activity (PD50)", "conditions": "Pseudomonas aeruginosa, 6720, sc, challenge 35 LD50s, 2 treatments, Table 11", "protocol": "as §2"}, "P. aeruginosa 8710": {"tested_on": "P. aeruginosa 8710", "test": "In vivo antibacterial activity (PD50)", "conditions": "Pseudomonas aeruginosa, 8710, sc, challenge >10^4 LD50s, 2 treatments, Table 11, read-out: PD50", "protocol": "as §2"}, "P. aeruginosa 6799": {"tested_on": "P. aeruginosa 6799", "test": "In vivo antibacterial activity (PD50)", "conditions": "Pseudomonas aeruginosa, 6799, sc, sc; challenge 71 LD50s; 2 treatments; Table 11; read-out: PD50", "protocol": "as §2"}}, "note": "Structures can show the parent of a compound that is named as a salt.", "data": [{"compound": "CC1(C)S[C@@H]2[C@H](N=CN3CCC(CCC4=NCCN4)CC3)C(=O)N2[C@H]1C(=O)O", "note": "[N, [2S-(2alpha,5alpha,6beta)]-6-[[[4-[4,5-dihydro-1H-imidazol-2-yl)ethyl]-1-piperidinyl]methylene]amino]-3,3-dimethyl-7-oxo-4-thia-1-azabicyclo[3.2.0]heptane-2-carboxylic acid hydrochloride]", "values": [{"measurement": "ED50", "setting": "P. aeruginosa 6719", "result": 22, "unit": "mg/kg"}, {"measurement": "ED50", "setting": "E. cloacae 6951 [1]", "result": "< 2", "unit": "mg/kg"}, {"measurement": "MIC", "setting": "S. aureus 1059B", "result": 64, "unit": "µg/mL"}, {"measurement": "MIC", "setting": "P. aeruginosa B", "result": 0.062, "unit": "µg/mL"}, {"measurement": "MIC", "setting": "P. rettgeri ATCC 9250", "result": 0.125, "unit": "µg/mL"}, {"measurement": "MIC", "setting": "S. aureus Smith [2]", "result": 8, "unit": "µg/mL"}, {"measurement": "MIC", "setting": "P. aeruginosa 5712", "result": 64, "unit": "µg/mL"}, {"measurement": "MIC", "setting": "S. marcescens 5805", "result": 0.25, "unit": "µg/mL"}, {"measurement": "MIC", "setting": "S. typhi P58A", "result": 0.031, "unit": "µg/mL"}, {"measurement": "MIC", "setting": "S. marcescens SM [3]", "result": 0.062, "unit": "µg/mL"}, {"measurement": "MIC", "setting": "K. pneumoniae 8357", "result": 0.125, "unit": "µg/mL"}, {"measurement": "MIC", "setting": "P. mirabilis 2", "result": 0.125, "unit": "µg/mL"}, {"measurement": "MIC", "setting": "K. pneumoniae 503-994", "result": 0.062, "unit": "µg/mL"}, {"measurement": "MIC", "setting": "P. aeruginosa Stone 130", "result": "> 128", "unit": "µg/mL"}, {"measurement": "MIC", "setting": "P. aeruginosa 503-56 [4]", "result": 16, "unit": "µg/mL"}, {"measurement": "MIC", "setting": "P. aeruginosa POW 151", "result": "> 128", "unit": "µg/mL"}, {"measurement": "MIC", "setting": "E. aerogenes 8 [5]", "result": 32, "unit": "µg/mL"}, {"measurement": "MIC", "setting": "K. pneumoniae A", "result": 0.016, "unit": "µg/mL"}, {"measurement": "MIC", "setting": "E. cloacae 24", "result": 0.125, "unit": "µg/mL"}, {"measurement": "MIC", "setting": "K. pneumoniae HE7", "result": "> 128", "unit": "µg/mL"}, {"measurement": "MIC", "setting": "P. mirabilis 503-1136", "result": 4, "unit": "µg/mL"}, {"measurement": "MIC", "setting": "E. cloacae 6951 [6]", "result": 8, "unit": "µg/mL"}, {"measurement": "MIC", "setting": "P. vulgaris ATCC 6380", "result": 0.031, "unit": "µg/mL"}, {"measurement": "ED50", "setting": "S. faecalis C1", "result": 62, "unit": "mg/kg"}, {"measurement": "ED50", "setting": "E. coli 5152", "result": 30, "unit": "mg/kg"}, {"measurement": "ED50", "setting": "E. aerogenes 8 [7]", "result": "> 250", "unit": "mg/kg"}, {"measurement": "ED50", "setting": "S. marcescens SM [8]", "result": 19, "unit": "mg/kg"}, {"measurement": "ED50", "setting": "P. aeruginosa 503-56 [9]", "result": 43, "unit": "mg/kg"}, {"measurement": "ED50", "setting": "P. aeruginosa 6148B", "result": 37, "unit": "mg/kg"}, {"measurement": "ED50", "setting": "S. aureus Smith [10]", "result": 12, "unit": "mg/kg"}, {"measurement": "MIC", "setting": "E. coli 257", "result": 0.031, "unit": "µg/mL"}, {"measurement": "ED50", "setting": "P. aeruginosa 6720", "result": 20, "unit": "mg/kg"}, {"measurement": "ED50", "setting": "P. aeruginosa 8710", "result": 50, "unit": "mg/kg"}, {"measurement": "ED50", "setting": "P. aeruginosa 6799", "result": "> 250", "unit": "mg/kg"}]}]}
